US11999727B2 (Tango Therapeutics, Inc., priority 2020, dated 2024)

Columns and labels:
PRMT5 [1] = target: T1, PRMT5 (Homo sapiens, UniProt O14744); experiment: PRMT5 biochemical IC50 assay with SAM as cofactor; details: PRMT5, SAM as cofactor; read-out: SAM IC50
T1 construct: purchased Viva (custom protein)

PRMT5 [2] = target: T1, PRMT5; experiment: PRMT5 biochemical IC50 assay with no cofactor; details: PRMT5, no cofactor
From the text: Table 1 indicates IC50 values (μM) against PRMT5 for exemplary compounds in the presence of SAM as cofactor, with no cofactor, and with MTA as cofactor, respectively (columns 4-6). […] Ki values can be calculated from the IC50 values as described in the Examples section. As detailed in the Examples section, for the assay performed in the presence of SAM, IC50=Ki×1.5 (Ki=IC50/1.5).

PRMT5 [3] = target: T1, PRMT5; experiment: PRMT5 biochemical IC50 assay with MTA as cofactor; details: PRMT5, MTA as cofactor; read-out: MTA IC50
[4] = test system: HAP1 MTAP-deleted cell line; experiment: SDMA in-cell western assay, HAP1 MTAP-deleted; format: cell-based; details: for MTAP intact/deleted ratio: SDMA in-cell western; for IC50: Homo sapiens
From the text: Table 1 also indicates IC50 values in an MTAP-isogenic cell line pair for exemplary compounds in an SDMA in-cell western assay (columns 7-8). HAP1 MTAP-intact is a cell line in which endogenous levels of MTAP are expressed, and HAP1 MTAP-deleted is an MTAP-null cell line.

[5] = test system: HAP1 MTAP-deleted cell line; experiment: Viability assay, MTAP-deleted cell line; format: cell-based
From the text: Table 1 additionally indicates IC50 values in a viability assay for the MTAP-deleted cell line (column 10), indicating the effect of treatment with compound on cell survival.

[6] = read-out: No Cofactor/ rel IC50
[7] = Homo sapiens, HAP1, read-out: HAP1 MTAP deleted viability

T1 sequence (O14744 whole entry): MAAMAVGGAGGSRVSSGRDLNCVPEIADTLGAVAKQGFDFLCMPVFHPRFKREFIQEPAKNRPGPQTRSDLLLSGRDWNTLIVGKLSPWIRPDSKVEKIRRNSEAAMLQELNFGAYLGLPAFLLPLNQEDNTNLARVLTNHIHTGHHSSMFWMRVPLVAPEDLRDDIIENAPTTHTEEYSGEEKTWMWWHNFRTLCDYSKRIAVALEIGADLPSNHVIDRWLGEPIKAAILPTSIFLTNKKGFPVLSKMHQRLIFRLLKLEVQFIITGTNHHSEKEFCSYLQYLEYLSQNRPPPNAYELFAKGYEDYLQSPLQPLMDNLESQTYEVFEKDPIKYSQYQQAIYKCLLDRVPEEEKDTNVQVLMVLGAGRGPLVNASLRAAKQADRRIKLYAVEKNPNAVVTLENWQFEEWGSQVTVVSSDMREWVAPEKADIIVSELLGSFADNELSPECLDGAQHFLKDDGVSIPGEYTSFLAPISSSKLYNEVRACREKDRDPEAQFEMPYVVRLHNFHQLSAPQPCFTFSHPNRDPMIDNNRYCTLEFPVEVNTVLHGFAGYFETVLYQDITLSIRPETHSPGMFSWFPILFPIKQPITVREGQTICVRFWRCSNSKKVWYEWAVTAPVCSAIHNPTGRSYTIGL
T1 sequence (Q9BQA1 whole entry partner): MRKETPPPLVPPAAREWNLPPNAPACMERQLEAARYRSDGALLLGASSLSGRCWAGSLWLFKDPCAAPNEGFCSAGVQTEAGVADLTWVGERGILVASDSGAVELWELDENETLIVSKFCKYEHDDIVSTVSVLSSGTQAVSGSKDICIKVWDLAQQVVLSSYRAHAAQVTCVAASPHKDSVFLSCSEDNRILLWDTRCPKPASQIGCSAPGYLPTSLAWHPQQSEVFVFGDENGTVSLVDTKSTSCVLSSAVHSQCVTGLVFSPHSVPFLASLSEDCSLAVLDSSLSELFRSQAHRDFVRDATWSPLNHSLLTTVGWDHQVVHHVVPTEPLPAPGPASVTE

Row | Compound | IC50 (PRMT5 [1]) [nM] | IC50 (PRMT5 [2]; read-out: No Cofactor/rel IC50) [nM] | IC50 (PRMT5 [3]) [nM] | IC50 (PRMT5 [2]; [6]) [nM] | further results
1 | NC(=O)c1cncc(NC(=O)C(=O)N2C[C@@H](CO)CC[C@H]2c2ccccc2)c1 (racemic) [Compound 285, 5-(2-(5-(hydroxymethyl)-2-phenylpiperidin-1-yl)-2-oxoacetamido)nicotinamide] | > 500 | > 500 | 50 to 500 | – | –
2 | NC(=O)c1cncc(NC(=O)C(=O)N2C[C@H](OC(F)F)CC[C@@H]2c2ccccc2)c1 (racemic) [Compound 400, 5-[[2-[(2R,5R)-5-(Difluoromethoxy)-2-phenyl-1-piperidyl]-2-oxo-acetyl]amino]pyridine-3-carboxamide] | > 500 | > 500 | 50 to 500 | – | –
3 | NC(=O)c1cncc(NC(=O)C(=O)N2C[C@H](OC(F)(F)F)CC[C@H]2c2ccccc2)c1 (racemic) [Compound 411, 5-[[2-Oxo-2-[2-phenyl-5-(trifluoromethoxy)-1-piperidyl]acetyl]amino]pyridine-3-carboxamide] | > 500 | > 500 | 50 to 500 | – | –
4 | Cc1cc(NC(=O)C(=O)N2C[C@H](C)CC[C@H]2c2ccc3c(c2)CCC(=O)N3)cnc1C(F)(F)F (racemic) [Compound 650, 2-[(2R,5S)-5-Methyl-2-(2-oxo-3,4-dihydro-1H-quinolin-6-yl)-1-piperidyl]-N-[5-methyl-6-(trifluoromethyl)-3-pyridyl]-2-oxo-acetamide] | 50 to 500 | 50 to 500 | 50 to 500 | – | –
5 | Cc1cc(NC(=O)C(=O)N2CCC(N(C)C)C[C@H]2c2ccccc2)cnc1N (mixture of isomers) [Compound 975, N-(6-amino-5-methyl-3-pyridyl)-2-[(2S,4S)-4-(dimethylamino)-2-phenyl-1-piperidyl]-2-oxo-acetamide] | > 500 | > 500 | – | – | –
6 | CNc1ccc([C@@H]2CC(F)(F)[C@@H](C)CN2C(=O)C(=O)Nc2cnc(N)c(C)c2)cn1 (racemic) [Compound 1054] | 50 to 500 | 50 to 500 | 50 to 500 | – | –
7 | CCc1cc(NC(=O)C(=O)N2C[C@@H](C)[C@@H](OC(C)C)C[C@@H]2c2ccc3scnc3c2)cnc1N (racemic) [Compound 1235] | – | – | – | – | MTAP intact/deleted ratio ([4]; IC50 ratio HAP1 MTAP-intact vs HAP1 MTAP-deleted): A (an IC50 ratio greater than or equal to 10 fold); IC50 ([5]; viability assay, MTAP-deleted cell line, read-out: HAP1 MTAP deleted viability): < 1000 nM
8 | Cc1ccc([C@H]2CC[C@H](C)CN2C(=O)C(=O)Nc2cncc(C)c2)cc1 (single isomer, unassigned) [Compound 12] | > 500 | – | > 500 | > 500 | –
9 | CC[C@H]1CC[C@H](c2ccccc2)N(C(=O)C(=O)Nc2cncc(C)c2)C1 (single isomer, unassigned) [Compound 18] | > 500 | – | > 500 | – | –
10 | Cc1cncc(NC(=O)C(=O)N2C[C@@H](C)CC[C@@H]2c2ccc(C)c(C)c2)c1 (single isomer, unassigned) [Compound 19] | > 500 | – | > 500 | > 500 | –
11 | CC[C@H]1CC[C@@H](c2ccccc2)N(C(=O)C(=O)Nc2cncc(C)c2)C1 (single isomer, unassigned) [Compound 20] | > 500 | – | > 500 | > 500 | –
12 | Cc1cc(NC(=O)C(=O)N2C[C@H](C)CC[C@H]2c2ccccc2)cnc1N (single isomer, unassigned) [Compound 40] | – | – | – | – | IC50 [5, 7]: > 10000 nM
13 | Cc1cncc(NC(=O)C(=O)N2C(C)C(C)CC[C@H]2c2ccccc2)c1 (single isomer, unassigned) [Compound 41] | – | – | – | – | IC50 [5, 7]: > 10000 nM
14 | C[C@@H]1CC[C@@H](c2ccccc2)N(C(=O)C(=O)Nc2cncc(C(N)=O)c2)C1 (single isomer, unassigned) [Compound 71] | – | – | – | – | IC50 ([4]; HAP1, read-out: HAP1 MTAP deleted IC50): > 1000 nM; IC50 [5, 7]: > 10000 nM
15 | Cc1cc(NC(=O)C(=O)N2CCCC[C@@H]2c2cccnc2)cnc1N (single isomer, unassigned) [Compound 74] | > 500 | – | 50 to 500 | > 500 | –
16 | Cc1cncc(NC(=O)C(=O)N2CC(C)CC[C@@H]2c2cccc(F)c2)c1 (single isomer, unassigned) [Compound 84] | > 500 | – | > 500 | > 500 | –
17 | C[C@@H]1CC[C@H](c2cccnc2)N(C(=O)C(=O)Nc2cncc(C(N)=O)c2)C1 (single isomer, unassigned) [Compound 98] | > 500 | – | > 500 | > 500 | –
18 | Cc1cc(NC(=O)C(=O)N2C[C@@H](C)CC[C@@H]2c2cccs2)cnc1N (single isomer, unassigned) [Compound 122] | > 500 | – | > 500 | > 500 | –

Row | Compound | IC50 (PRMT5 [1]) [nM] | IC50 (PRMT5 [2]; read-out: No Cofactor/rel IC50) [nM] | IC50 (PRMT5 [3]) [nM] | IC50 (PRMT5 [2]; [6]) [nM] | further results
19 | C[C@@H]1CC[C@H](C2CCCCC2)N(C(=O)C(=O)Nc2cncc(C(N)=O)c2)C1 (single isomer, unassigned) [Compound 127] | > 500 | – | > 500 | > 500 | –
20 | C[C@@H]1CC[C@@H](C2CCCCC2)N(C(=O)C(=O)Nc2cncc(C(N)=O)c2)C1 (single isomer, unassigned) [Compound 130] | > 500 | – | > 500 | > 500 | –
21 | Cc1cc(NC(=O)C(=O)N2C[C@@H](C)CC[C@@H]2C2CCCCC2)cnc1N (single isomer, unassigned) [Compound 152] | > 500 | – | > 500 | > 500 | –
22 | C[C@H]1C[C@@H](C)[C@H](c2ccccc2)N(C(=O)C(=O)Nc2cncc(C(N)=O)c2)C1 (single isomer, unassigned) [Compound 275, 5-(2-(3,5-dimethyl-2-phenylpiperidin-1-yl)-2-oxoacetamido)nicotinamide] | > 500 | > 500 | > 500 | – | –
23 | C[C@@H]1C[C@@H](C)[C@@H](c2ccccc2)N(C(=O)C(=O)Nc2cncc(C(N)=O)c2)C1 (single isomer, unassigned) [Compound 286, 5-(2-(3,5-dimethyl-2-phenylpiperidin-1-yl)-2-oxoacetamido)nicotinamide] | > 500 | > 500 | > 500 | – | –
24 | Cc1cc(NC(=O)C(=O)N2C[C@H](C)[C@H](C)C[C@@H]2c2ccccc2)cnc1N (single isomer, unassigned) [Compound 299] | > 500 | > 500 | > 500 | – | –
25 | Cc1cc(NC(=O)C(=O)N2C[C@H](C)[C@@H](C)C[C@@H]2c2ccccc2)cnc1N (single isomer, unassigned) [Compound 305] | > 500 | > 500 | > 500 | – | –
26 | Cc1cc(NC(=O)C(=O)N2C[C@@H](C)CC[C@@H]2c2cccnc2)cnc1N (single isomer, unassigned) [Compound 309] | > 500 | > 500 | > 500 | – | –
27 | Cc1cc([C@H]2CC[C@H](C)CN2C(=O)C(=O)Nc2cncc(C(N)=O)c2)ccc1O (single isomer, unassigned) [Compound 330] | > 500 | > 500 | > 500 | – | –
28 | COc1ncc(NC(=O)C(=O)N2C[C@H](C)CC[C@H]2C2CCCCC2)cc1C(N)=O (single isomer, unassigned) [Compound 370] | > 500 | > 500 | > 500 | – | –
29 | Cc1cc(NC(=O)C(=O)N2C[C@@H](C)CC[C@@H]2c2cccc(N(C)C)c2)cnc1N (single isomer, unassigned) [Compound 387] | > 500 | > 500 | > 500 | – | –
30 | C[C@H]1CC[C@@H](c2ccc(O)nc2)N(C(=O)C(=O)Nc2cncc(C(N)=O)c2)C1 (single isomer, unassigned) [Compound 402] | > 500 | > 500 | > 500 | – | –
31 | Cc1cc(NC(=O)C(=O)N2C[C@@H](C)CC[C@@H]2c2ccc(C(F)F)cc2)cnc1N (single isomer, unassigned) [Compound 410] | – | – | – | – | IC50 [5, 7]: > 10000 nM
32 | Cc1ccc([C@H]2CC[C@H](C)CN2C(=O)C(=O)Nc2cncc(C(N)=O)c2)cn1 (single isomer, unassigned) [Compound 645] | > 500 | > 500 | > 500 | – | –
33 | C[C@@H]1CC[C@@H](c2ccc(C(F)(F)F)c(Cl)c2)N(C(=O)C(=O)Nc2cncc(C(N)=O)c2)C1 (single isomer, unassigned) [Compound 647] | > 500 | > 500 | > 500 | – | –
34 | C[C@@H]1CC[C@@H](c2cc(Cl)cc(C(F)(F)F)c2)N(C(=O)C(=O)Nc2cncc(C(N)=O)c2)C1 (single isomer, unassigned) [Compound 653] | > 500 | > 500 | > 500 | – | –
35 | Cc1cc(NC(=O)C(=O)N2C[C@H](C)CC[C@H]2c2ccc3c(c2)CC(=O)N3)cnc1N (single isomer, unassigned) [Compound 677] | – | – | – | – | IC50 [5, 7]: > 10000 nM
36 | COc1ncc(NC(=O)C(=O)N2C[C@@H](C)CC[C@@H]2c2ccc3sc(CCN(C)C)nc3c2)cc1C(N)=O (single isomer, unassigned) [Compound 1378] | – | – | – | < 50 | IC50 ([4]; HAP1, SDMA in-cell western, HAP1 MTAP-deleted, read-out: HAP 1 MTAP deleted IC50): < 100 nM; MTAP intact/deleted ratio ([4]; IC50 ratio HAP1 MTAP-intact / HAP1 MTAP-deleted): A (an IC50 ratio greater than or equal to 10 fold); IC50 ([5]; Homo sapiens, HAP1, viability, HAP1 MTAP-deleted cell line, read-out: HAP1 MTAP deleted viability): < 1000 nM
